Measured values from US11896601B2, “Composition for prevention or treatment of allergic disease including inotodiol compound as active ingredient” (CARBOEXPERT INC., priority 2018, dated 2024).

How the values were obtained:
[1] = system: CD4^+ T cells expressing DO11.00 TCR; assay: Adoptive transfer of CFSE-stained DO11.10 TCR CD4+ T cells, ovalbumin-induced division (flow cytometry); type: in vivo, mouse; conditions: BALB/C mice; oral once a day for four days; inotodiol 20 mg/kg, ethanol extract 320 mg/kg, imatinib 10 mg/kg; five days after ovalbumin injection; FIG. 4(B)
Procedure: (§1) In order to examine the effect of an inotodiol compound or a chaga mushroom extract containing an inotodiol compound on CD4^+ T cell activity regulation, analysis of expression level of cytokine produced by Th2 CD4^+ T cell and adoptive transfer experiments using CD4^+ TCR transgenic T cells that express DO11.00 TCR, i.e., the ovalbumin-derived peptide specific T cell receptor (TCR), were performed.
Experiments to measure a degree of ovalbumin-derived peptide specific T cell immune response from an animal experiment were performed as follows. Cells were isolated from the lymph nodes of transgenic mice expressing DO11.10TCR. The isolated cells were fluorescence-stained with carboxyfluorescein succinimidyl ester (CFSE), and 2×10^6 cells were injected intravenously into BALB/C mice. Cells were injected intraperitoneally with ovalbumin (50 μg) and alum to induce division of CD4^+ T cells expressing DOII.00 TCR. Oral administration of 20 mg/kg of the inotodiol compound, 320 mg/kg of the chaga mushroom ethanol extract, 10 mg/kg of dexamethasone, 10 mg/kg of imatinib, or 20 mg/kg of the cholesterol was performed once a day for four days starting from one day after ovalbumin injection. After five days of ovalbumin injection, the cells were isolated from BALB/C lymph nodes, stained with anti-CD4 antibody and anti-DO11.10 antibody, and measured CFSF fluorescence intensity of the CD4^+ T cell expressing DOII.00 TCR using flow cytometry to determine the cell division degree. Then, the number of cells was measured. Here, the CFSF fluorescence intensity decreased as the cell division increases.

[2] = system: mast cell degranulation (MCPT-1); assay: Passive systemic anaphylaxis: MCPT-1 in blood; type: in vivo, mouse; conditions: passive systemic anaphylaxis (anti-DNP-IgE, DNP-BSA i.v.); oral once a day for 3 days; inotodiol 20, ethanol extract 320, cholesterol 20, dexamethasone 10, imatinib 20 mg/kg; FIG. 5(B)
Procedure: (§2) On the third day after oral administration, 3 μg of anti-dinitrophenol (DNP)-IgE was intravenously injected, and after 24 hours, mast cell degranulation was induced by intravenous injection of 80 μg of DNP-conjugated bovine serum albumin (BSA). The rectal temperature of mice induced mast cell degranulation was measured, and the amount of MCPT-1 in the blood was analyzed.

[3] = system: mast cells in small intestine; assay: Number of mast cells in small intestine (toluidine staining), food allergy mouse model; type: in vivo; conditions: ovalbumin food allergy BALB/C mice; toluidine stained small intestine sections; FIG. 2(B)
Procedure: (§3) To prepare allergy mouse models, 5-week-old male BALB/C mice were used. Food allergy models were prepared using ovalbumin of chicken as an allergy-inducing material (allergen).
(§4) For immunization of the mice, 20 μg of ovalbumin was mixed with 2 mg of alum, and the mixture was intraperitoneally injected to the mice two times every two weeks. Food allergy induction was induced by performing the second immunization injection and two weeks thereafter, 50 mg of ovalbumin was orally administered thereto five times every three days to cause an allergic response. […] Here, as a positive control, a mice group was used to which dexamethasone was administered every day. 50 mg of ovalbumin alone or the chaga mushroom extract, the fraction, or the inotodiol compound was lastly administered thereto, followed by observation on symptoms caused by allergy one hour thereafter.

mast cell degranulation = assay: Passive systemic anaphylaxis: rectal temperature; type: in vivo, mouse; conditions: passive systemic anaphylaxis (anti-DNP-IgE, DNP-BSA i.v.); oral once a day for 3 days; inotodiol 20 mg/kg, ethanol extract 320 mg/kg; FIG. 5(A)
Procedure: as §2

[4] = system: food allergy-induced mouse model; assay: Stool observation (diarrhea score) in ovalbumin food allergy mouse model; type: in vivo; conditions: ovalbumin food allergy BALB/C mice; oral daily; inotodiol, dexamethasone, cholesterol 20 mg/kg; extract and fractions 320 mg/kg; score 0-4 (Table 4); FIG. 1(C)
Procedure: as §3, §4

[5] = system: egg white protein-specific IgE; assay: Serum IgE concentration by ELISA, food allergy mouse model; type: in vivo; conditions: ovalbumin food allergy BALB/C mice, serum one day after last administration, FIG. 3(A)
Procedure: as §4

[6] = system: eosinophils in small intestine; assay: Eosinophil infiltration in small intestine (H&E staining), food allergy mouse model; type: in vivo; conditions: ovalbumin food allergy BALB/C mice; H&E stained small intestine sections; FIG. 2(A)
Procedure: as §3, §4
The mice of each experimental group in Experimental Example 1 were anesthetized and cut the abdomen. Then, the small intestine was removed, fixed with formalin, treated with paraffin, permeated with paraffin, and microsectioned using microtome, thereby obtaining tissue sections. The obtained small intestine sections were stained with hematoxylin and eosin (H&E) to observe eosinophil cells.

[7] = system: food allergy-induced mouse model; assay: Anaphylaxis symptom score in ovalbumin food allergy mouse model; type: in vivo; conditions: ovalbumin food allergy BALB/C mice; oral daily; inotodiol, dexamethasone, cholesterol 20 mg/kg; extract and fractions 320 mg/kg; score 0-4 (Table 3); FIG. 1(B)
Procedure: as §3, §4

[8] = system: cytokine produced by Th2 CD4^+ T cells (IL-5, IL-13, IFN-γ); assay: Cytokine production by mesenteric lymph node cells of treated food allergy mice (ELISA); type: in vivo, mouse; conditions: mLN cells of treated food allergy mice cultured three days with 100 μg/mL ovalbumin (OVA); FIG. 4(A)
Procedure: as §1
For the expression of cytokine, a sample was treated in the same manner as in Experimental Example 1, and the cells were isolated from the mesenteric lymph node (mLN) of mice of each group after one day. At this time, a group treated with 10 mg/kg of dexamethasone, a group treated with 20 mg/kg of imatinib (Gleevec), which is used as a mast cell […] therapeutic agent, and a group treated with 20 mg/kg of cholesterol that is similar in structure to the inotodiol compound were added. The isolated cells were dispensed into wells of a 96-well plate at a rate of 1×10^6 cells/well. RPMI complete medium (containing 10% fetal bovine serum (FBS), penicillin, streptomycin, and glutamine) containing ovalbumin or RPMI complete medium containing 100 μg/mL of ovalbumin was inoculated and culture for three days under a condition of 37° C. and 5% CO2. […]

[9] = system: mast cell protease-1 (MCPT-1); assay: Serum MCPT-1 concentration by ELISA, food allergy mouse model; type: in vivo; conditions: ovalbumin food allergy BALB/C mice, serum one day after last administration, FIG. 3(B)
Procedure: as §4

In the case of `Cc1ccc(NC(=O)c2ccc(CN3CCN(C)CC3)cc2)cc1Nc1nccc(-c2cccnc2)n1` [Imat., imatinib], the “CFSE fluorescence intensity of CD4+ T cell expressing DO11.00 TCR (cell division degree)” value [1] is reported as “no difference in the CFSE fluorescence intensity and the number of cells, as compared with the unimmune group”, the “number of CD4+ T cells expressing DO11.00 TCR” value [1] is reported as “no difference in the CFSE fluorescence intensity and the number of cells, as compared with the unimmune group” and the “concentration of MCPT-1 in the blood after induced mast cell degranulation” value (from here on “concentration of MCPT-1 in the blood”) [2] is reported as “level of increase in concentration of MCPT-1 was significantly decreased”.

`CC(C)=CC[C@@H](O)[C@@H](C)[C@H]1CC[C@@]2(C)C3=C(CC[C@]12C)[C@@]1(C)CC[C@H](O)C(C)(C)[C@@H]1CC3` [Inotodiol, inotodiol] was tested, and the “number of mast cells in the small intestine” value [3] was “decreased number of mast cells”, the “rectal temperature after induced mast cell degranulation” value (mast cell degranulation) was “did not decrease the rectal temperature” and the “diarrhea symptom score (stool symptom score)” value [4] was “lower than that of the food allergy-induced group”. The “concentration of egg white protein-specific IgE in serum” value [5] was “no substantial change in the concentration of IgE”, the “number of CD4+ T cells expressing DO11.00 TCR” value [1] was “significantly increased number of CD4^+T cells” and the “infiltration of eosinophils in the small intestine (number of stained eosinophil cells)” value [6] was “decreased infiltration of eosinophils”. The anaphylaxis score [7] was “lower anaphylaxis score than the food allergy-induced group”, the “concentration of MCPT-1 in the blood” value [2] was “level of increase in concentration of MCPT-1 was significantly decreased” and the “amount of IL-5, IL-13, and IFN-γ (cytokine expression by Th2 CD4+ T cells)” value [8] was “not substantially different from the expression amount of IL-5, IL-13, and IFN-γ”. The “concentration of MCPT-1 in serum” value [9] was “decreased significantly”.

In the case of `CC(C)CCC[C@@H](C)[C@H]1CC[C@H]2[C@@H]3CC=C4C[C@@H](O)CC[C@]4(C)[C@H]3CC[C@]12C` [cholesterol, reference compound], the “number of mast cells in the small intestine” value [3] is reported as “little decrease in the number of eosinophils and mast cells”, the “infiltration of eosinophils in the small intestine (number of stained eosinophil cells)” value [6] is reported as “little decrease in the number of eosinophils and mast cells” and the “concentration of MCPT-1 in the blood” value [2] is reported as “MCPT-1 did not decrease”.
